US20190048391A1, “COMPOSITIONS AND METHODS FOR IDENTIFYING ENZYME MODULATORS OR INHIBITORS” (priority 2013, published 2019)
Peptide text beside a SMILES is read from it. * marks the point of attachment. Decanoyl = CCCCCCCCCC(=O)*; CH2Cl = ClC*

Assays:
Format in all cases: cell-based
Furin [1] = target: T1, Furin (Homo sapiens, UniProt P09958); test: flow cytometry of FLAG surface expression in SupT1 clones stably expressing the wt gp120/gp41 boundary scaffold; details: SupT1 clones expressing wt gp120/41 boundary, FITC anti-FLAG, 0.9% without inhibitor
T1 construct: endogenous in cells; host or cells: SupT1 T-cell clones stably transduced with pBMN-gp160 min-wt
Text: In alternative embodiments, cell-based assays of the invention comprise use of a double-tagged engineered scaffold (of the invention) that allows discrimination between cleaved and non-cleaved events based on the cell surface expression of one or two tags, respectively. In alternative embodiments the scaffold protein travels to the cell surface and retains the FLAG tag only when processing of the gp120/gp41 boundary within the gp160 Env precursor is inhibited, e.g., by a putative drug. […]
Clonal populations should drastically increase robustness as 100% of the cells are expected to express the assay scaffold. […] Selected clones sorted into a 96-well plate, were amplified for a period of one month and analyzed by flow cytometry and fluorescence microscopy. […]
For that purpose, clones expressing the wt gp120/41 boundary were analyzed by flow cytometry following incubation with increasing concentration of the Furin inhibitor DCK. […] The same clones, treated with 50 mM DCK, were further analyzed by fluorescence microscopy prior and following incubation with 50 mM DCK. […]
Flow cytometry and sorting: Flow cytometry is performed on a BD FACSAria™ and/or FACSCanto (SDSU FACS core facility) with 488 nm and 633 nm lasers. Data is collected using FACSDiva 6.1.1™ software (BD Biosciences. San Jose, Calif.) and analyzed by FLOWJO™ (Tree Star, Inc., Ashland, Oreg.).

Furin [2] = target: T1, Furin; test: fluorescence microscopy (HA-FITC, FLAG-CY3) of SupT1 clones stably expressing the wt gp120/gp41 boundary scaffold; details: 50 mM DCK
Description: For that purpose, clones expressing the wt gp120/41 boundary were analyzed by flow cytometry following incubation with increasing concentration of the Furin inhibitor DCK. FLAG surface expression is progressively recovered at 10 mM and 50 mM DCK, increasing form 0.9% to 39% and then 90% (FIG. 7). The same clones, treated with 50 mM DCK, were further analyzed by fluorescence microscopy prior and following incubation with 50 mM DCK. The mutant version was used as control.
FIG. 8 illustrates: Fluorescence microscopy images of SupT1 clones stably expressing the assay (as with FIGS. 5, 6 and 7, above). Clones expressing wild type (wt) or mutant version of the boundary were analyzed with HA-FITC and FLAG-CY3. Visible light, individual channels and merge are shown. I: Inhibitor, BF: Bright Field.

[3] = system: cleavage of wildtype HIV-1 envelope boundary by Furin or similar enzymes; test: multiplexed tdTomato-barcoded SupT1 flow cytometry assay, wildtype HIV-1 envelope boundary substrate; details: DCK treatment; wildtype HIV-1 envelope boundary population
Text: (§1) As example, FIG. 15 schematically illustrates a fluorescent flow cytometry analysis of three SupT1 T cell lines, each carrying a different substrate within the context of the assay elements. The distinct cell lines were previously genetically barcoded with different levels of tdTomato fluorescent protein. In that manner, the assay cells, when analyzed for tdTomato in the PE channel (FIG. 15A, panel A) show three populations (negative, dim, and bright tdTomato). […] The HA positive/FLAG positive population reveal Population 2 (dim for tdTomato expressing the mutant HIV envelope boundary; env-mut (R511S)).
(§2) FIG. 16 schematically illustrates a fluorescent flow cytometry analysis in the PE channel for td Tomato expression and FITC channel for FLAG expression. As a reminder, in the assay the second tag (FLAG here) is lost if cleavage occurs while the scaffold protein travels to the cell surface. […] When stained for FLAG, only population 2 (mutant HIV-1 boundary) retains the tag, while wild type HIV-1 boundary and DenV pr-M, as expected, lost it.
(§3) In alternative embodiments, exemplary assays of the invention are used for drug discovery. As a proof of principle, the same experiment with the three bar-coded populations was repeated in the presence of DCK, an inhibitor of Furin and similar protein convertases that are active in the Golgi/TransGolgi network. […]

[4] = system: cleavage of DenV pr-M boundary; test: multiplexed tdTomato-barcoded SupT1 flow cytometry assay, DenV pr-M boundary substrate; details: DCK treatment; DenV pr-M population
Text: as §1, §2, §3

T1 sequence (P09958 108-794): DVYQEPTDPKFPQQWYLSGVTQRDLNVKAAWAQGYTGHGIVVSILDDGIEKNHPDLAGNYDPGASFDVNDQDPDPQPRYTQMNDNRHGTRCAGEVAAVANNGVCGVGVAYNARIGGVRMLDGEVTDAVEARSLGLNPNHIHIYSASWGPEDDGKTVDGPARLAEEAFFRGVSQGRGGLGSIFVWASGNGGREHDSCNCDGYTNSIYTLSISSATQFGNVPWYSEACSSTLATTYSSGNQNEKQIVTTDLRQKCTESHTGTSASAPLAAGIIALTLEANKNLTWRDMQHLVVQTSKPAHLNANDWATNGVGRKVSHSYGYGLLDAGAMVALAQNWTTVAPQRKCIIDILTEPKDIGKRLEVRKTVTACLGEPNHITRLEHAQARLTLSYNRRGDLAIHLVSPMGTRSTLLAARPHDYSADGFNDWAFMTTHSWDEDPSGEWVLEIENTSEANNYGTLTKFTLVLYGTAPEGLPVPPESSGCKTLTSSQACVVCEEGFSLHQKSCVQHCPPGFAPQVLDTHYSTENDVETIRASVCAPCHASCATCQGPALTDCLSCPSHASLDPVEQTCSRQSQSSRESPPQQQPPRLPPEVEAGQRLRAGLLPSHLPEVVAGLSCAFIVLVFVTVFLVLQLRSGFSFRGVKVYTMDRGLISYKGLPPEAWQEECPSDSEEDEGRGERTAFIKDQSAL

Structure (SMILES): CCCCCCCCCC(=O)N[C@@H](CCCN=C(N)N)C(=O)N[C@H](C(=O)N[C@@H](CCCCN)C(=O)N[C@@H](CCCN=C(N)N)C(=O)CCl)C(C)C [DCK] (Decanoyl-RVKR-CH2Cl)
- FLAG surface expression (Furin [1]; 10 mM DCK): 39%
- FLAG surface expression (Furin [1]; 50 mM DCK): 90%
- red fluorescence (FLAG-CY3) of wt clones (Furin [2]): red fluorescence is restored
- second tag (FLAG) cell surface expression [3]: reconstitutes the second tag (FLAG) cell surface expression
- inhibition of cleavage (FLAG reconstitution) [4]: not inhibited by DCK
